Results on 76 compounds are retold here after patent US20080280933A1, “BENZIMIDAZOLYL COMPOUNDS” (priority 2006, published 2008).

In the assay the target is T1, mGluR2 receptor (metabotropic glutamate receptor 2) (Homo sapiens, UniProt Q14416).
T1 construct: expressed in transfected cells
Briefly: mGluR2 Potentiator Screen, FLIPR, EC10-EC20 glutamate challenge. The assay is classed as cell-based. Conditions: read-out: EC50. In a few lines:
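HEK cells stably co-expressing mGluR2 and Gα15, kept glutamine-free overnight, were loaded with Fluo-4 plus probenecid and GPT/pyruvate. Compounds (top 10 μM) were added ≥30 min before an EC10–EC20 glutamate challenge. Peak FLIPR fluorescence ratios were curve-fitted, excluding points above maximal effect, with maxima from on-plate standards.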

The mark [1] stands for this setting: mGluR2 potentiator screen, Table 7.

Each structure is given as a SMILES string. Where two headings read alike, the source gives them in different places.

T1 sequence (Q14416 19-872, species assumed): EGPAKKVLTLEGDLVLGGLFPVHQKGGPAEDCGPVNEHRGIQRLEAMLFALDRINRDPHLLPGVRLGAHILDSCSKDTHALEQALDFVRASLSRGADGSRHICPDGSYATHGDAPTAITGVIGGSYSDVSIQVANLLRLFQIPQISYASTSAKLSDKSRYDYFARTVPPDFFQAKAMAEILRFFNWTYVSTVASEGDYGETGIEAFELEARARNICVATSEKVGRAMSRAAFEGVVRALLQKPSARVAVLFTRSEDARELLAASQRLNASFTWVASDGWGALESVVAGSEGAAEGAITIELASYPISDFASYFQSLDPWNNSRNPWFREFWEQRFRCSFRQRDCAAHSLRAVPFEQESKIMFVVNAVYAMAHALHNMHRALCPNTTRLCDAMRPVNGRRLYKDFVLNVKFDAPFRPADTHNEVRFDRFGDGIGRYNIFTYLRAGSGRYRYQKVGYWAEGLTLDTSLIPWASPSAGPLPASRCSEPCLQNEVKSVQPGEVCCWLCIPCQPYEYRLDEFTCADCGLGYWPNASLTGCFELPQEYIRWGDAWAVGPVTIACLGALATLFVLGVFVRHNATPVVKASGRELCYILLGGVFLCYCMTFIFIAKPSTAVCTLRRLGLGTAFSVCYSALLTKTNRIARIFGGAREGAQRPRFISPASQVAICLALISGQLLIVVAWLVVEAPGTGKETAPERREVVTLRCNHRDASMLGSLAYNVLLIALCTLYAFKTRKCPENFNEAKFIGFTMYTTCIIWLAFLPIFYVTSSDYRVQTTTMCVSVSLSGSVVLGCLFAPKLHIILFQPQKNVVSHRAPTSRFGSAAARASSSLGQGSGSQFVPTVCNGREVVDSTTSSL

A word on the EC50: it is the midpoint of the concentration-response curve. Take `Cn1c(CN2CCC(c3ccccc3Cl)CC2)nc2c(Br)cccc21` [compound 160]: the 50% effective concentration (EC50) under setting [1] stood at 862 nM.

Consider `Cn1c(CN2CCC(c3ccccc3Cl)CC2)nc2ccccc21` [compound 161], for which, under setting [1], the half-maximal effective concentration (EC50) was 144 nM.

As for `Cn1c(CN2CCC(c3cccc(C(F)(F)F)c3)CC2)nc2ccccc21` [compound 162], the concentration giving a half-maximal response (EC50) under setting [1] came out at 254 nM.

For the compound `COc1ccc(OC)c(C2CCN(Cc3nc4ccccc4n3C)CC2)c1` [compound 163], the EC50 under setting [1] was 928 nM.

On to `Cn1c(CN2CCC(c3ccc(C(F)(F)F)cc3)CC2)nc2c(Br)cccc21` [compound 164], for which the EC50 under setting [1] was determined as 838 nM.

With `COc1ccc(OC)c(C2CCN(Cc3nc4c(Br)cccc4n3C)CC2)c1` [compound 165], the half-maximal effective concentration (EC50) under setting [1] worked out at 2660 nM.

Regarding `Cn1c(CN2CCC(c3ccc(C(F)(F)F)cc3)CC2)nc2ccccc21` [compound 166], the concentration giving a half-maximal response (EC50) under setting [1] came to 77.8 nM.

Regarding `Cn1c(CN2CCC(c3cccc(C(F)(F)F)c3)C(O)C2)nc2ccccc21` (stereo not shown) [compound 167], the EC50 under setting [1] was 4380 nM.

On to `Cn1c(CN2CC[C@@H]3c4ccccc4CC[C@@H]3C2)nc2c(Br)cccc21` [compound 168], for which the EC50 under setting [1] is 1200 nM.

With `COc1ccccc1C1CCN(Cc2nc3c(Br)cccc3n2C)CC1` [compound 169], the EC50 under setting [1] came out at 1230 nM.

`Cn1c(CN2CCC(c3cccc4ccc(C(N)=O)cc34)CC2)nc2c(Br)cccc21` [compound 170]: the EC50 under setting [1] was determined as 8090 nM.

Consider `COc1cccc2c1CC[C@H]1CN(Cc3nc4ccccc4n3C)CC[C@H]21` [compound 171], for which the EC50 under setting [1] was determined as 7550 nM.

Regarding `Cn1c(CN2CCC(c3cc(Cl)ccc3F)CC2)nc2ccccc21` [compound 172], under setting [1], the concentration for a half-maximal effect (EC50) was found to be 8.28 nM.

For `CC[C@H](C)COc1ccc(Cl)cc1C1CCN(Cc2nc3ccccc3n2CCF)CC1` [compound 173], the EC50 under setting [1] amounted to 1700 nM.

On to `CC[C@H](C)COc1ccc(Cl)cc1C1CCN(Cc2nc3ccccc3n2C)CC1` [compound 174], for which the concentration for a half-maximal effect (EC50) under setting [1] was determined as 447 nM.

Regarding `CC[C@H](C)COc1ccc(Cl)cc1C1CCN(Cc2nc3ccccc3n2CF)CC1` [compound 175], the EC50 under setting [1] came out at 8760 nM.

Consider `CC[C@H](C)COc1ccc(Cl)cc1C1CCN(Cc2nc3ccccc3n2CCOC)CC1` [compound 176], for which the EC50 under setting [1] is 1340 nM.

In the case of `CC(C)COc1ccc(Cl)cc1C1CCN(Cc2nc3ccccc3n2CF)CC1` [compound 177], the EC50 under setting [1] came out at 3470 nM.

With `CC(C)COc1ccc(Cl)cc1C1CCN(Cc2nc3ccccc3n2C)CC1` [compound 178], the 50% effective concentration (EC50) under setting [1] was 499 nM.

Take `CC(C)COc1ccc(Cl)cc1C1CCN(Cc2nc3ccccc3n2C2CC2)CC1` [compound 179]: under setting [1], the EC50 was 1740 nM.

As to `COCCn1c(CN2CCC(c3cc(Cl)ccc3OCC(C)C)CC2)nc2ccccc21` [compound 180], the EC50 under setting [1] is 3020 nM.

On to `CC(C)COc1ccc(Cl)cc1C1CCN(Cc2nc3ccccc3n2CCF)CC1` [compound 181], for which the concentration for a half-maximal effect (EC50) under setting [1] came to 2110 nM.

For `CCCCOc1ccc(Cl)cc1C1CCN(Cc2nc3ccccc3n2CF)CC1` [compound 182], under setting [1], the 50% effective concentration (EC50) was found to be 355 nM.

For the compound `CCCCOc1ccc(Cl)cc1C1CCN(Cc2nc3ccccc3n2C2CC2)CC1` [compound 183], the 50% effective concentration (EC50) under setting [1] was 1520 nM.

On to `CCCCOc1ccc(Cl)cc1C1CCN(Cc2nc3ccccc3n2CCOC)CC1` [compound 184], for which the EC50 under setting [1] was 479 nM.

Take `CCCCOc1ccc(Cl)cc1C1CCN(Cc2nc3ccccc3n2C)CC1` [compound 185]: the concentration for a half-maximal effect (EC50) under setting [1] amounted to 138 nM.

For the compound `CCCCOc1ccc(Cl)cc1C1CCN(Cc2nc3ccccc3n2CCF)CC1` [compound 186], under setting [1], the EC50 worked out at 246 nM.

Turning to `Clc1ccc(OCCC2CC2)c(C2CCN(Cc3nc4ccccc4n3C3CC3)CC2)c1` [compound 187], the concentration for a half-maximal effect (EC50) under setting [1] came out at 777 nM.

As for `FCn1c(CN2CCC(c3cc(Cl)ccc3OCCC3CC3)CC2)nc2ccccc21` [compound 188], under setting [1], the 50% effective concentration (EC50) was 566 nM.

On to `Cn1c(CN2CCC(c3cc(Cl)ccc3OCCC3CC3)CC2)nc2ccccc21` [compound 189], for which the EC50 under setting [1] came out at 153 nM.

In the case of `FCCn1c(CN2CCC(c3cc(Cl)ccc3OCCC3CC3)CC2)nc2ccccc21` [compound 190], the 50% effective concentration (EC50) under setting [1] amounted to 141 nM.

For `COCCn1c(CN2CCC(c3cc(Cl)ccc3OCCC3CC3)CC2)nc2ccccc21` [compound 191], the half-maximal effective concentration (EC50) under setting [1] turned out to be 136 nM.

For `Clc1ccc(OCC2CCC2)c(C2CCN(Cc3nc4ccccc4n3C3CC3)CC2)c1` [compound 192], the EC50 under setting [1] was 2260 nM.

For `FCn1c(CN2CCC(c3cc(Cl)ccc3OCC3CCC3)CC2)nc2ccccc21` [compound 193], the EC50 under setting [1] was found to be 2340 nM.

Regarding `Cn1c(CN2CCC(c3cc(Cl)ccc3OCC3CCC3)CC2)nc2ccccc21` [compound 194], under setting [1], the concentration giving a half-maximal response (EC50) came to 473 nM.

For `FCCn1c(CN2CCC(c3cc(Cl)ccc3OCC3CCC3)CC2)nc2ccccc21` [compound 195], under setting [1], the EC50 was determined as 1390 nM.

Turning to `COCCn1c(CN2CCC(c3cc(Cl)ccc3OCC3CCC3)CC2)nc2ccccc21` [compound 196], under setting [1], the EC50 worked out at 719 nM.

`CC1CC1COc1ccc(Cl)cc1C1CCN(Cc2nc3ccccc3n2CF)CC1` (stereo not shown) [compound 197]: the half-maximal effective concentration (EC50) under setting [1] is 3260 nM.

As for `CC1CC1COc1ccc(Cl)cc1C1CCN(Cc2nc3ccccc3n2C2CC2)CC1` (stereo not shown) [compound 198], the half-maximal effective concentration (EC50) under setting [1] came out at 2250 nM.

Take `CC1CC1COc1ccc(Cl)cc1C1CCN(Cc2nc3ccccc3n2C)CC1` (stereo not shown) [compound 199]: the EC50 under setting [1] was 390 nM.

Consider `CC1CC1COc1ccc(Cl)cc1C1CCN(Cc2nc3ccccc3n2CCF)CC1` (stereo not shown) [compound 200], for which the EC50 under setting [1] is 1550 nM.

For the compound `COCCn1c(CN2CCC(c3cc(Cl)ccc3OCC3CC3C)CC2)nc2ccccc21` (stereo not shown) [compound 201], the concentration giving a half-maximal response (EC50) under setting [1] stood at 623 nM.

With `Clc1ccc(OCC2CCOC2)c(C2CCN(Cc3nc4ccccc4n3C3CC3)CC2)c1` (stereo not shown) [compound 202], under setting [1], the EC50 was found to be 2880 nM.

Turning to `Cn1c(CN2CCC(c3cc(Cl)ccc3OCC3CCOC3)CC2)nc2ccccc21` (stereo not shown) [compound 203], the concentration giving a half-maximal response (EC50) under setting [1] stood at 712 nM.

`FCn1c(CN2CCC(c3cc(Cl)ccc3OCC3CCOC3)CC2)nc2ccccc21` (stereo not shown) [compound 204]: the 50% effective concentration (EC50) under setting [1] amounted to 3610 nM.

Consider `COCCn1c(CN2CCC(c3cc(Cl)ccc3OCC3CCOC3)CC2)nc2ccccc21` (stereo not shown) [compound 205], for which the half-maximal effective concentration (EC50) under setting [1] is 3350 nM.

On to `Clc1ccc(OCC2CCCO2)c(C2CCN(Cc3nc4ccccc4n3C3CC3)CC2)c1` (stereo not shown) [compound 206], for which the EC50 under setting [1] is 2600 nM.

With `Cn1c(CN2CCC(c3cc(Cl)ccc3OCC3CCCO3)CC2)nc2ccccc21` (stereo not shown) [compound 207], the concentration for a half-maximal effect (EC50) under setting [1] was determined as 666 nM.

Consider `FCn1c(CN2CCC(c3cc(Cl)ccc3OCC3CCCO3)CC2)nc2ccccc21` (stereo not shown) [compound 208], for which the half-maximal effective concentration (EC50) under setting [1] was determined as 4130 nM.

With `COCCn1c(CN2CCC(c3cc(Cl)ccc3OCC3CCCO3)CC2)nc2ccccc21` (stereo not shown) [compound 209], under setting [1], the EC50 amounted to 1700 nM.

With `FCCn1c(CN2CCC(c3cc(Cl)ccc3OCC3CCCO3)CC2)nc2ccccc21` (stereo not shown) [compound 210], the EC50 under setting [1] came out at 1040 nM.

Consider `CC1(COc2ccc(Cl)cc2C2CCN(Cc3nc4ccccc4n3CF)CC2)COC1` [compound 211], for which, under setting [1], the 50% effective concentration (EC50) is 8220 nM.

Take `CC1(COc2ccc(Cl)cc2C2CCN(Cc3nc4ccccc4n3CCF)CC2)COC1` [compound 212]: the EC50 under setting [1] worked out at 10500 nM.

Turning to `Clc1ccc(OCC2CCCCO2)c(C2CCN(Cc3nc4ccccc4n3C3CC3)CC2)c1` (stereo not shown) [compound 214], under setting [1], the EC50 came to 2010 nM.

Turning to `FCn1c(CN2CCC(c3cc(Cl)ccc3OCC3CCCCO3)CC2)nc2ccccc21` (stereo not shown) [compound 215], the 50% effective concentration (EC50) under setting [1] is 1570 nM.

Take `Cn1c(CN2CCC(c3cc(Cl)ccc3OCC3CCCCO3)CC2)nc2ccccc21` (stereo not shown) [compound 216]: the EC50 under setting [1] is 534 nM.

For the compound `FCCn1c(CN2CCC(c3cc(Cl)ccc3OCC3CCCCO3)CC2)nc2ccccc21` (stereo not shown) [compound 217], the EC50 under setting [1] was determined as 1180 nM.

In the case of `COCCn1c(CN2CCC(c3cc(Cl)ccc3OCC3CCCCO3)CC2)nc2ccccc21` (stereo not shown) [compound 218], the concentration giving a half-maximal response (EC50) under setting [1] turned out to be 1550 nM.

As for `CCCOc1ccc(Cl)cc1C1CCN(Cc2nc3ccccc3n2C)CC1` [compound 220], the EC50 under setting [1] was found to be 216 nM.

For `CCCOc1ccc(Cl)cc1C1CCN(Cc2nc3ccccc3n2CF)CC1` [compound 221], the concentration giving a half-maximal response (EC50) under setting [1] worked out at 413 nM.

As to `CCCOc1ccc(Cl)cc1C1CCN(Cc2nc3ccccc3n2CCF)CC1` [compound 222], under setting [1], the EC50 was 248 nM.

For the compound `CCCOc1ccc(Cl)cc1C1CCN(Cc2nc3ccccc3n2CCOC)CC1` [compound 223], under setting [1], the half-maximal effective concentration (EC50) amounted to 233 nM.

For `CCOc1ccc(Cl)cc1C1CCN(Cc2nc3ccccc3n2C)CC1` [compound 224], under setting [1], the half-maximal effective concentration (EC50) was 4260 nM.

As for `CCOc1ccc(Cl)cc1C1CCN(Cc2nc3ccccc3n2C2CC2)CC1` [compound 225], the EC50 came to 999 nM.

`CCOc1ccc(Cl)cc1C1CCN(Cc2nc3ccccc3n2CF)CC1` [compound 226]: the EC50 was determined as 637 nM.

In the case of `CCOc1ccc(Cl)cc1C1CCN(Cc2nc3ccccc3n2CCF)CC1` [compound 227], the EC50 came to 210 nM.

With `CCOc1ccc(Cl)cc1C1CCN(Cc2nc3ccccc3n2CCOC)CC1` [compound 228], the concentration giving a half-maximal response (EC50) was determined as 185 nM.

On to `COc1ccc(Cl)cc1C1CCN(Cc2nc3ccccc3n2C2CC2)CC1` [compound 229], for which the 50% effective concentration (EC50) came out at 357 nM.

As for `COCCn1c(CN2CCC(c3cc(Cl)ccc3OC)CC2)nc2ccccc21` [compound 230], the concentration for a half-maximal effect (EC50) is 209 nM.

As for `COc1ccc(Cl)cc1C1CCN(Cc2nc3ccccc3n2C)CC1` [compound 231], the concentration for a half-maximal effect (EC50) was 115 nM.

On to `COc1ccc(Cl)cc1C1CCN(Cc2nc3ccccc3n2CF)CC1` [compound 232], for which the concentration giving a half-maximal response (EC50) came out at 396 nM.

As to `COc1ccc(Cl)cc1C1CCN(Cc2nc3ccccc3n2CCF)CC1` [compound 233], the concentration giving a half-maximal response (EC50) was determined as 264 nM.

`COc1ccc(Cl)cc1C1CCN(Cc2nc3c(Br)cccc3n2C)CC1` [compound 234]: the EC50 worked out at 1310 nM.

Consider `C#CCOc1ccc(Cl)cc1C1CCN(Cc2nc3ccccc3n2C2CC2)CC1` [compound 235], for which the EC50 came to 258 nM.

Consider `C#CCOc1ccc(Cl)cc1C1CCN(Cc2nc3ccccc3n2CCF)CC1` [compound 236], for which the EC50 was 74.1 nM.

As to `C#CCOc1ccc(Cl)cc1C1CCN(Cc2nc3ccccc3n2CF)CC1` [compound 237], the EC50 was 302 nM.
